This note sets out measurements from patent publication US20250230165A1, “HETEROCYCLIC COMPOUNDS FOR USE IN THE TREATMENT OF CANCER” (ARTIOS PHARMA LIMITED, priority 2021, published 2025).

SMILES strings stand for the structures.

This test deals with T1, Human Polθ polymerase domain (aa1820-2590) (Homo sapiens, UniProt O75417).
T1 construct: Human Polθ polymerase domain (aa1820-2590) was expressed in E. coli; made in house; host or cells: E. coli
T1 sequence (O75417 1820-2590): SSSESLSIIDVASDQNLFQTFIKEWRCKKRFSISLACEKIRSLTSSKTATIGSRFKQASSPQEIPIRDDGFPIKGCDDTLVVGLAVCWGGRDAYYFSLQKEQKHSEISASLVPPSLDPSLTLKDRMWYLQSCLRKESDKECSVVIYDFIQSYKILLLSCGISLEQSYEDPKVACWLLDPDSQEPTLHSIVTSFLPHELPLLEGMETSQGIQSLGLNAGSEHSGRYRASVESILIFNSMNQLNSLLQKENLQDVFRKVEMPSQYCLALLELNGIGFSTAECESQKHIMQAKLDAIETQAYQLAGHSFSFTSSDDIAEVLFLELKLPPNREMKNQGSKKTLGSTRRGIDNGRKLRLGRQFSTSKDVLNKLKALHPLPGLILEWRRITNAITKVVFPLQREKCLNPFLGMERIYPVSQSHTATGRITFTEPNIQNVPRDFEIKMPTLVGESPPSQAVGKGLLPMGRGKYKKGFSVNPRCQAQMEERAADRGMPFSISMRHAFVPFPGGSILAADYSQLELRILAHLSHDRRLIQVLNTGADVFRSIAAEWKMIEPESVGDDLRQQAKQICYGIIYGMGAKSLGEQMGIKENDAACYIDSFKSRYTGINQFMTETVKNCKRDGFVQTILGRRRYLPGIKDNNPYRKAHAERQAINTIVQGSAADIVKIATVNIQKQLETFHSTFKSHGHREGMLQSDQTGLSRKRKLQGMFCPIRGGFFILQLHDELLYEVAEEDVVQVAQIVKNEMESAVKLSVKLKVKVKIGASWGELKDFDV
Briefly: Polθ Polymerase Domain Kinact/KI Assay (PicoGreen). The note with it: 0.8 nM Polθ, 100 nM DNA substrate, kobs vs [I] fit for 2-step covalent inhibitor. Format: biochemical. As to the method:
Polθ Polymerase Domain Kinact/KI Assay
A PicoGreen assay was used to measure the Kinact and KI values of covalent compounds that inhibit the activity of Polθ in vitro.
Human Polθ polymerase domain (aa1820-2590) was expressed in E. coli, purified, aliquoted and stored at −80° C. until required. Polθ substrate was generated from a 1.2:1 mix of DNA II Short to DNA II Long to give a final concentration of […] substrate in annealing buffer (20 mM Tris pH 7.5, 50 mM NaCl). The substrate was heated in […] aliquots to 95° C. in a heating block for 5 min before the heating block switched off, the reaction left to cool to rt and stored at −20° C. until required.
Assay measurements were performed with 1× buffer comprising 25 mM Tris pH 7.5, 12.5 mM NaCl, […], 5% (v/v) glycerol, 0.01% v/v Triton x-100, 0.1 mg/ml BSA, 1 mM DTT. Test compounds were prepared by dilution in 100% DMSO to give a 12 μM intermediate stock of each (100× final top concentration). 100 nL of 23×1:1.5-fold serial dilutions and a DMSO only control were dispensed using the Tecan dispenser into Greiner 384 well black low volume plates (product code 784076). DMSO concentration was maintained at 1% of the final assay volume by back filling with DMSO.
2× Working stock of substrate (200 nM of DNA substrate and […] dNTPs) and enzyme ([…] PolΘ) were made up in assay buffer. 5 μL/well of both enzyme and substrate 2× solutions were dispensed using a Tempest dispenser (Formulatrix) into assay plates that had been pre-dispensed with compound to give a final assay concentration of 100 nM DNA substrate, […] dNTPs and 0.8 nM Polθ. To stop the reaction, […] of a solution containing 25 mM Tris-HCl pH 7.5 and 20 mM EDTA was added at […] (t=0, 2.5, 5, 7.5, 10, 12.5, 15, 20, 25, 30, 35, 40, 45, 50, 55 and 60 min) using the Tempest's time delay function. The plates were covered during the time course to prevent evaporation. After completing the assay, 5 μL of detection reagent (25 mM Tris-HCl pH 7.5 and 2.5% (v/v) PicoGreen) was dispensed into the wells using a Tempest liquid handler (Formulatrix) and plates subsequently read on the CLARIOstar Plus (BMG Labtech) using the default optical settings for fluorescein and the auto gain/focus settings.
All data analysis was carried out using GraphPad Prism V.8 (GraphPad Software Inc, San Diego, CA) Time course data for each inhibitor concentration was fitted to equation 1 to determine kobs values.^1 Any time points where the control (DMSO alone) reaction was no longer linear were excluded from the analysis. 1) Evaluation of Enzyme Inhibitors in Drug Discovery (Ch9), R. A Copeland, Wiley, 2nd Edition 2013.
A secondary plot of kobs vs [I] is used to determine the Kinact and KI parameters (for a 2-step covalent inhibitor) by fitting to equation 2.^1
`C=CC(=O)N1CC2(C1)N[C@H](C)CN(CCN1C[C@H]3CC(=O)N(c4cc(C(F)(F)F)cc(C)n4)[C@@H]3C(=O)N(C)c3cccc(F)c31)C2C` (mixture of isomers) [Example 37b, (3aR,11aS)-5-(2-((6R,9R/S)-2-acryloyl-6,9-dimethyl-2,5,8-triazaspiro[3.5]nonan-8-yl)ethyl)-6-fluoro-10-methyl-1-(6-methyl-4-(trifluoromethyl)pyridin-2-yl)-1,3a,4,5,10,11a-hexahydro-2H-benzo[b]pyrrolo[2,3-f][1,4]diazocine-2,11(3H)-dione] displayed a Kinact/Kl of 580000 M⁻¹ s⁻¹.
`C=CC(=O)N1CC(=O)N2CCN(CCN3C[C@H]4CC(=O)N(c5cc(C(F)(F)F)cc(C)n5)[C@@H]4C(=O)N(C)c4cccc(F)c43)CC2C1` (mixture of isomers) [Example 62a, (3aR,11aS)-5-(2-((R/S)-8-acryloyl-6-oxooctahydro-2H-pyrazino[1,2-a]pyrazin-2-yl)ethyl)-6-fluoro-10-methyl-1-(6-methyl-4-(trifluoromethyl)pyridin-2-yl)-1,3a,4,5,10,11a-hexahydro-2H-benzo[b]pyrrolo[2,3-f][1,4]diazocine-2,11(3H)-dione]: the Kinact/Kl came to 3.31e+06 M⁻¹ s⁻¹.
With `C=CC(=O)N1CC(=O)N2CCN(CCN3C[C@H]4CC(=O)N(c5cc(C(F)(F)F)cc(C)n5)[C@@H]4C(=O)N(C)c4cccc(F)c43)CC2C1` (mixture of isomers) [Example 62b, (3aR,11aS)-5-(2-((S/R)-8-acryloyl-6-oxooctahydro-2H-pyrazino[1,2-a]pyrazin-2-yl)ethyl)-6-fluoro-10-methyl-1-(6-methyl-4-(trifluoromethyl)pyridin-2-yl)-1,3a,4,5,10,11a-hexahydro-2H-benzo[b]pyrrolo[2,3-f][1,4]diazocine-2,11(3H)-dione] the figure was 1.26e+06 M⁻¹ s⁻¹; with `Cc1cc(C(F)(F)F)cc(N2C(=O)C[C@@H]3CN(Cc4cn5c(n4)CN(C(=O)CCl)C(C)C5)c4c(Cl)cccc4N(C)C(=O)[C@H]32)n1` (mixture of isomers) [Example 73a, (3aR,11aS)-6-chloro-5-(((R/S)-7-(2-chloroacetyl)-6-methyl-5,6,7,8-tetrahydroimidazo[1,2-a]pyrazin-2-yl)methyl)-10-methyl-1-(6-methyl-4-(trifluoromethyl)pyridin-2-yl)-1,3a,4,5,10,11a-hexahydro-2H-benzo[b]pyrrolo[2,3-f][1,4]diazocine-2,11(3H)-dione], 39000 M⁻¹ s⁻¹; with `Cc1cc(C(F)(F)F)cc(N2C(=O)C[C@@H]3CN(Cc4cn5c(n4)CN(C(=O)CCl)C(C)C5)c4c(Cl)cccc4N(C)C(=O)[C@H]32)n1` (mixture of isomers) [Example 73b, (3aR,11aS)-6-chloro-5-(((S/R)-7-(2-chloroacetyl)-6-methyl-5,6,7,8-tetrahydroimidazo[1,2-a]pyrazin-2-yl)methyl)-10-methyl-1-(6-methyl-4-(trifluoromethyl)pyridin-2-yl)-1,3a,4,5,10,11a-hexahydro-2H-benzo[b]pyrrolo[2,3-f][1,4]diazocine-2,11(3H)-dione], 790000 M⁻¹ s⁻¹.
Turning to `C=CC(=O)N1CCN2CCN(C(=O)CN3C[C@H]4CC(=O)N(c5cc(C(F)(F)F)cc(C)n5)[C@@H]4C(=O)N(C)c4cccc(F)c43)CC2C1` (mixture of isomers) [Example 76a, (3aR,11aS)-5-(2-((R/S)-8-acryloyloctahydro-2H-pyrazino[1,2-a]pyrazin-2-yl)-2-oxoethyl)-6-fluoro-10-methyl-1-(6-methyl-4-(trifluoromethyl)pyridin-2-yl)-1,3a,4,5,10,11a-hexahydro-2H-benzo[b]pyrrolo[2,3-f][1,4]diazocine-2,11(3H)-dione], the Kinact/Kl was 220000 M⁻¹ s⁻¹.
In turn, `C=CC(=O)N1CCN2CCN(C(=O)CN3C[C@H]4CC(=O)N(c5cc(C(F)(F)F)cc(C)n5)[C@@H]4C(=O)N(C)c4cccc(F)c43)CC2C1` (mixture of isomers) [Example 76b, (3aR,11aS)-5-(2-((S/R)-8-acryloyloctahydro-2H-pyrazino[1,2-a]pyrazin-2-yl)-2-oxoethyl)-6-fluoro-10-methyl-1-(6-methyl-4-(trifluoromethyl)pyridin-2-yl)-1,3a,4,5,10,11a-hexahydro-2H-benzo[b]pyrrolo[2,3-f][1,4]diazocine-2,11(3H)-dione] gave a Kinact/Kl of 940000 M⁻¹ s⁻¹.
The molecule `C=CC(=O)N1CCC(N2CCC(CN3C[C@H]4CC(=O)N(c5cc(C(F)(F)F)cc(C)n5)[C@@H]4C(=O)N(C)c4cccc(C)c43)CC2)C1` (mixture of isomers) [Example 95a, (3aR,11aS)-5-((1-((S/R)-1-acryloylpyrrolidin-3-yl)piperidin-4-yl)methyl)-6,10-dimethyl-1-(6-methyl-4-(trifluoromethyl)pyridin-2-yl)-1,3a,4,5,10,11a-hexahydro-2H-benzo[b]pyrrolo[2,3-f][1,4]diazocine-2,11(3H)-dione] had a Kinact/Kl of 2.63e+06 M⁻¹ s⁻¹.
On to `C=CC(=O)N1CCC(N2CCC(CN3C[C@H]4CC(=O)N(c5cc(C(F)(F)F)cc(C)n5)[C@@H]4C(=O)N(C)c4cccc(C)c43)CC2)C1` (mixture of isomers) [Example 95b, (3aR,11aS)-5-((1-((R/S)-1-acryloylpyrrolidin-3-yl)piperidin-4-yl)methyl)-6,10-dimethyl-1-(6-methyl-4-(trifluoromethyl)pyridin-2-yl)-1,3a,4,5,10,11a-hexahydro-2H-benzo[b]pyrrolo[2,3-f][1,4]diazocine-2,11(3H)-dione], for which the Kinact/Kl amounted to 2.5e+06 M⁻¹ s⁻¹.
The molecule `C=CC(=O)N1CCN2C(=O)CN(CCN3C[C@H]4CC(=O)N(c5cc(C(F)(F)F)cc(C)n5)[C@@H]4C(=O)N(C)c4cccc(F)c43)CC2C1` (mixture of isomers) [Example 116a, (3aR,11aS)-5-(2-((R/S)-8-acryloyl-4-oxooctahydro-2H-pyrazino[1,2-a]pyrazin-2-yl)ethyl)-6-fluoro-10-methyl-1-(6-methyl-4-(trifluoromethyl)pyridin-2-yl)-1,3a,4,5,10,11a-hexahydro-2H-benzo[b]pyrrolo[2,3-f][1,4]diazocine-2,11(3H)-dione] came in with a Kinact/Kl of 1.17e+06 M⁻¹ s⁻¹.
`C=CC(=O)N1Cc2cc(CN3C[C@H]4CC(=O)N(c5cc(C(F)(F)F)cc(C)n5)[C@@H]4C(=O)N(C)c4cccc(Cl)c43)cnc2C1COC` (mixture of isomers) [Example 236, (3aR,11aS)-5-(((S/R)-6-acryloyl-7-(methoxymethyl)-6,7-dihydro-5H-pyrrolo[3,4-b]pyridin-3-yl)methyl)-6-chloro-10-methyl-1-(6-methyl-4-(trifluoromethyl)pyridin-2-yl)-1,3a,4,5,10,11a-hexahydro-2H-benzo[b]pyrrolo[2,3-f][1,4]diazocine-2,11(3H)-dione] displayed a Kinact/Kl of 1.24e+06 M⁻¹ s⁻¹.
